Reference: patent publication US20060293381A1, “Fungicidal effect by regulating signal transduction pathways” (priority 2005, published 2006)
“Also recorded” adds a separate entry of the source. Read-outs that look alike come from different tables or passages of the source.

What was measured:
C. neoformans [1] = format: cell-based, Cryptococcus neoformans
Procedure: (§1) FIG. 1: [A] Treatment of multiple strains of C. neoformans serotype A H99 with fludioxonil (1 ug ml^−1 and 10 ug ml^−1), calcineurin inhibitor FK506, and FK506+Fludioxonil (1 ug ml^−1). [B] Measurement of cell density of multiple strains of C. neoformans representing relative cell growth after incubation of C. neoformans in culture for 72 hours in various fludioxonil concentrations. The following serotype A strains were used for this assay: WT (H99) (♦), and cna1Δ (▴), hog1Δ (□) and cna1Δ hog1Δ (∘) mutant strains. [C] Measurement of WT H99, hog1Δ, and cna1Δ mutants grown for 48 hours exposed to disks containing 10 ug (Fludiox10), 50 ug (Fludiox50), or 100 ug (Fludiox100) of fludioxonil; 2 ug (FK5062) or 20 ug (FK50620) of FK506; 5 ul of 100% ethanol (ETOH) and dimethyl sulfoxide (DMSO).
Additionally, the fractional inhibitory concentration (FIC) was calculated to determine the FIC index, of which a value <1·0 denotes a synergistic interaction.

C. neoformans [2] = experiment: Microscopic observation of cell morphology after fludioxonil; format: cell-based, Cryptococcus neoformans
Procedure: (§2) FIG. 6: [A] Measurements of morphological changes in response to fludioxonil treatment (10 ug ml^−1 for 48 hours) in serotype A H99 WT [A-b], cna1Δ [A-c], and hog1Δ [A-d]. As a control, serotype A H99 WT was grown without fludioxonil [A-a]. Cells were then observed by microscopy (bar=20 um). [B] Measurements of glycerol content in cell extracts in response to fludioxonil treatment in serotype A WT strain H99, cna1Δ, hog1Δ, and the serotype D WT strain JEC21. Cells were grown to mid-exponential phase and then incubated in 10 ug fludioxonil ml^−1 for the time indicated. Glycerol content in cell extracts was measured by a UV-glycerol assay procedure and normalized to dry cell weight. Two individual experiments were performed and standard deviations are presented as error bars.
We microscopically observed cells after exposure to fludioxonil. […] As expected, the morphology of JEC21 cells was not affected by fludioxonil.

C. neoformans [3] = experiment: Glycerol content in cell extracts (UV-glycerol assay); format: cell-based, Cryptococcus neoformans
Procedure: as §2
We measured the glycerol content in C. neoformans after fludioxonil treatment for 1 and 3 hours (FIG. 6B). […] Increased intracellular glycerol levels may trigger non-physiological levels of water influx into the cell, resulting in cell swelling and growth inhibition. […] Alternatively, the cna1Δ mutant cells could be rapidly killed by Hog1 activation prior to accumulating glycerol, because fludioxonil has a fungicidal effect on the cna1Δ mutant (Table 1).

C. neoformans [4] = experiment: Minimal fungicidal concentration (MFC), NCCLS criteria; format: cell-based; details: Cryptococcus neoformans; WT strain; fludioxonil alone
Description: To determine whether fludioxonil is fungicidal or fungistatic to C. neoformans, minimal fungicidal concentrations (MFCs) were investigated in accordance with the NCCLS criteria (Table 2).

C. neoformans [5] = experiment: NCCLS drug susceptibility assay in liquid medium (MIC80, FIC index, cell density); format: cell-based, Cryptococcus neoformans
Procedure: as §1
To quantitatively measure fludioxonil sensitivity, we performed drug susceptibility assays according to NCCLS criteria using a range of fludioxonil concentrations (5 ng ml^−1 to 10 ug ml^−1) to determine the minimum inhibitory concentration (MIC). In this assay, the MIC80 of fludioxonil for the WT strain was <5 ug ml^−1 whereas the MIC80 for the cna1Δ mutant was <100 ng ml^−1 (FIG. 1B and Table 1).

Hog1 MAPK = experiment: Hog1 phosphorylation pattern by Western Blot; format: cell-based, Cryptococcus neoformans
Description: (§3) FIG. 3: Measurements of Hog1 MAPK activation by rapid dephosphorylation in response to fludioxonil in C. neoformans. Measurements of phosphorylated Hog1 (P-Hog1) and unphosphorylated Hog1 (Hog1) are shown in C. neoformans serotype A strain H99 (H99 WT), H99 cna1Δ, serotype D strain JEC21 (JEC21 WT), and S. cerevisiae. The dual phosphorylation status of Hog1 (T171 and Y173) was monitored using antibody specific for dual phosphorylation of p38 MAPK (P-Hog1). The same blot was stripped and then probed with polyclonal anti-Hog1 antibody as a loading control (Hog1).
FIG. 4: Measurements of fludioxonil sensitivity and Hog1 phosphorylation patterns in response to fludioxonil in various clinical and environmental serotype A [A] and serotype D [B] isolates. Measurements of phosphorylated Hog1 (P-Hog1) and unphosphorylated Hog1 (Hog1) were done using Western Blot analysis.
(§4) To determine how Hog1 is regulated in response to fludioxonil in C. neoformans, Hog1 phosphorylation patterns were monitored by Western Blot analysis in response to fludioxonil. When the serotype A strain H99 was exposed to 1 or 10 ug ml^−1 fludioxonil ml^−1, Hog1 was dephosphorylated within 15 minutes and its dephosphorylation status was maintained for 3 hours (FIG. 3). […] On the other hand, in the serotype D strain JEC21 Hog1 was only slightly phosphorylated under normal conditions, only minimally further phosphorylated if at all after 15 minutes of exposure to fludioxonil, and subsequently maintained in an unphosphorylated state for up to 3 hours (FIG. 3). In contrast, Hog1 was rapidly phosphorylated in response to osmotic shock in strain JEC21.

C. neoformans [6] = experiment: Fungal growth on YPD agar containing the drug; format: cell-based, Cryptococcus neoformans
Procedure: To investigate whether C. neoformans is sensitive to fludioxonil, fungal growth was tested on YPD agar containing the drug. […] To elucidate the role of the HOG pathway in fludioxonil sensitivity, we tested the sensitivity of hog1Δ and pbs2Δ mutants that had been constructed before (Y S Bahn et al., Mol. Biol. Cell. (2005) 16: 2285-2300). […] To examine whether phosphorylation and kinase activity of Hog1 MAPK are required to confer fludioxonil sensitivity, we tested the sensitivity of cells expressing site-directed mutants of Hog1 at the phosphorylation sites (hog1+HOG1^T171A+Y173A) or the catalytic site (hog1+HOG1^K49S+K50N) (FIG. 1A).
(§5) Two C. neoformans serotypes were tested for sensitivity to fludioxonil at 1 μg/ml and 10 μg/ml to determine whether fludioxonil sensitivity is differentially regulated between the two strains and if it is controlled by the HOG pathway. […] S. cerevisiae is resistant to fludioxonil and was used as a control. Thus differential sensitivity to fludioxonil was seen between the two WT serotypes. The hog1Δ mutation in the serotype D strain JEC21 was resistant to fludioxonil, similar to WT JEC21 (FIG. 2). The hog1Δ mutation in the serotype A strain H99 background, however, was resistant to fludioxonil, unlike WT H99 (FIG. 2). This indicates a critical role for the Hog1 pathway in fludioxonil sensitivity.
To determine whether the differential fludioxonil sensitivity observed between the serotype A strain H99 and the serotype D strain JEC21 results from serotype- or strain-specific differences, fludioxonil sensitivity in multiple serotype A and D clinical and environmental strains was investigated. The Hog1 phosphorylation pattern after a 1 hour exposure to fludioxonil was monitored.

S. cerevisiae = experiment: Fungal growth on agar containing fludioxonil (control species); format: cell-based
Procedure: FIG. 2: Differential fungicidal sensitivity between C. neoformans serotype A strain H99 and serotype D strain JEC21. WT indicates wildtype cells; hog1 indicates a mutant Hog1 gene hog1Δ. S. cerevisiae is used as a control.
as §5

Hog1 = Hog1 phosphorylation pattern by Western Blot; format: cell-based; details: S. cerevisiae
Description: as §3, §4

[7] = WT strain H99, fludioxonil disk 100 ug
[8] = serotype A strain H99, 1 or 10 ug ml^−1 fludioxonil

C=CC[C@@H]1/C=C(\C)C[C@H](C)C[C@H](OC)[C@H]2O[C@@](O)(C(=O)C(=O)N3CCCC[C@H]3C(=O)O[C@H](/C(C)=C/[C@@H]3CC[C@@H](O)[C@H](OC)C3)[C@H](C)[C@@H](O)CC1=O)[C@H](C)C[C@@H]2OC [FK506]
halo / growth inhibition around disk (C. neoformans [1]; [7]): not inhibited

N#Cc1c[nH]cc1-c1cccc2c1OC(F)(F)O2 [fludioxonil, 4-(2,2-difluoro-1,3-benzodioxol-4-yl)pyrrole-3-carbonitrile]
cell morphology (C. neoformans [2]; JEC21 cells): not affected | cell morphology (C. neoformans [2]; WT H99, 10 ug ml^−1 for 48 hours): some cells were swollen, and interestingly were often attached to each other | cell morphology (C. neoformans [2]; cna1Δ mutant, 10 ug ml^−1 for 48 hours): even more severe cytokinesis defect | cell morphology (C. neoformans [2]; hog1Δ mutant, 10 ug ml^−1 for 48 hours): no swollen morphology or defects in cell division | glycerol content (C. neoformans [3]; WT strain H99, 10 ug fludioxonil ml^−1, 1 and 3 hours): increased after 1 hour exposure, and to an even greater extent after 3 hour incubation | glycerol content (C. neoformans [3]; cna1Δ mutant, 10 ug fludioxonil ml^−1, 1 and 3 hours): increased following 1 hour treatment with fludioxonil but accumulation levels at 3 hours were lower than those of the WT | glycerol content (C. neoformans [3]; hog1Δ mutant, 10 ug fludioxonil ml^−1, 1 and 3 hours): no increase in glycerol | glycerol content (C. neoformans [3]; serotype D strain JEC21, 10 ug fludioxonil ml^−1): little or no glycerol | MFC (C. neoformans [4]): > 10 µg/mL | MIC80 (C. neoformans [5]; Cryptococcus neoformans, WT strain, read-out: MIC80): < 5 µg/mL | fludioxonil sensitivity (cell growth, FIG. 1B) (C. neoformans [5]; cna1Δ hog1Δ double mutant): complete resistance | MIC80 (C. neoformans [5]; cna1Δ mutant): < 0.1 µg/mL | growth in liquid culture (C. neoformans [5]; hog1Δ and cna1Δ hog1Δ mutants, even with 10 ug fludioxonil ml^−1): modest reduction of growth, but still showed robust resistance | Hog1 phosphorylation pattern (Hog1 MAPK; cna1Δ mutant, 1 ug or 10 ug fludioxonil ml^−1): almost identical to that observed in the wild-type strain | Hog1 activation in response to fludioxonil (Hog1 MAPK; resistant clinical/environmental strains, 1 hour incubation): not activated | Hog1 dephosphorylation status maintained (Hog1 MAPK; [8]): 3 h | time to Hog1 dephosphorylation (Hog1 MAPK; [8]): ≤ 15 min | Hog1 activation in response to fludioxonil (Hog1 MAPK; serotype D strain JEC21): only minimally activated, if at all | fludioxonil sensitivity (C. neoformans [6]; 12 independently derived AD hybrid strains): resistance similar to the parental strain JEC171 | growth on agar containing drug (C. neoformans [6]; WT serotype D strain JEC21, 1 μg/ml and 10 μg/ml): complete resistance | growth on agar containing drug (C. neoformans [6]; cna1Δ and cnb1Δ mutants (H99 background)): hypersensitivity | growth on agar containing drug (C. neoformans [6]; hog1+HOG1^T171A+Y173A and hog1+HOG1^K49S+K50N site-directed mutants): as resistant to fludioxonil as the hog1Δ mutant | growth on agar containing drug (C. neoformans [6]; hog1Δ mutant (H99 background)): complete resistance; also recorded: resistant | growth on agar containing drug (C. neoformans [6]; hog1Δ mutation in serotype D strain JEC21): resistant | fludioxonil sensitivity (C. neoformans [6]; mpk1Δ mutant): hypersensitivity | growth defect in response to fludioxonil with osmotic stabilizer (C. neoformans [6]; mpk1Δ, mkk1Δ, bck1Δ mutants, supplementation with 1M sorbitol): partially rescued the growth defect | fludioxonil sensitivity (C. neoformans [6]; mutants lacking MKK1 and BCK1 genes): hypersensitivity | fludioxonil sensitivity (C. neoformans [6]; parental serotype A H99 (ura5)): sensitivity | fludioxonil sensitivity (C. neoformans [6]; parental serotype D JEC171 (ade2 lys2)): resistance | growth on agar containing drug (C. neoformans [6]; pbs2Δ mutant (H99 background)): complete resistance | strains sensitive to fludioxonil (C. neoformans [6]; serotype A clinical and environmental strains): 8 of 10 | fludioxonil sensitivity (C. neoformans [6]; serotype A strains IN-38 and UG-20020, serotype D strains NIH433, JEC21, MMRL757): clear resistance | growth on agar containing drug (C. neoformans [6]; serotype A wild-type (WT) strain H99, fludioxonil 1 and 10 ug ml^−1): severely inhibited growth; also recorded: sensitivity | strains sensitive to fludioxonil (C. neoformans [6]; serotype D clinical and environmental strains): 6 of 9 | halo / growth inhibition around disk (C. neoformans [1]; [7]): only modest growth inhibition | halo / growth inhibition around disk (C. neoformans [1]; cna1Δ strain, disks with 10, 50, or 100 ug fludioxonil): large haloes | growth on agar containing drug (S. cerevisiae): resistant | Hog1 activation in response to fludioxonil (Hog1): completely inactive
